Assay results published in patent publication US20090176773A1, “Non-Peptidic Inhibitors of AKAP/PKA Interaction” (FORSCHUNGSVERBUND BERLIN E.V., priority 2005, published 2009).
“Also recorded” adds a separate entry of the source. Read-outs that look alike come from different tables or passages of the source.

What was measured:
[1] = target: AKAP18delta-RIIalpha interaction (GST-AKAP18delta binding to plate-bound PKA-RIIalpha) (Rattus norvegicus, UniProt P12368+Q6JP77); experiment: ELISA for quantitative detection of protein-protein binding between PKA-RIIalpha and GST-AKAP18delta (library screening, validation, IC50); conditions: for Concentration dependence of the inhibitory effect in validation (dilution series): FIG. 15, 50 nM GST-AKAP18delta
Sequence of AKAP18delta-RIIalpha interaction (GST-AKAP18delta binding to plate-bound PKA-RIIalpha) (Rattus norvegicus, UniProt P12368+Q6JP77) (P12368 2-401): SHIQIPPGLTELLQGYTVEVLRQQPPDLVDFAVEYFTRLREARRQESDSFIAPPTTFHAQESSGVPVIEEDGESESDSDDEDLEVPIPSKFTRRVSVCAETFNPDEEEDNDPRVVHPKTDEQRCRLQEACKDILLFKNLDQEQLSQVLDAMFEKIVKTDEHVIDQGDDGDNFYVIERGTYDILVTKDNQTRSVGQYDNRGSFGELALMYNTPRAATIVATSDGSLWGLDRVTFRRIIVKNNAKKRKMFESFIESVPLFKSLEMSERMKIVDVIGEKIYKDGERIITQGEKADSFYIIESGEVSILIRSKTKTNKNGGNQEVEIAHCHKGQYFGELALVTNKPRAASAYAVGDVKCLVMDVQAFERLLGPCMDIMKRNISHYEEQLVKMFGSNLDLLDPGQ
Sequence of AKAP18delta-RIIalpha interaction (GST-AKAP18delta binding to plate-bound PKA-RIIalpha) (Rattus norvegicus, UniProt P12368+Q6JP77) (Q6JP77 whole entry): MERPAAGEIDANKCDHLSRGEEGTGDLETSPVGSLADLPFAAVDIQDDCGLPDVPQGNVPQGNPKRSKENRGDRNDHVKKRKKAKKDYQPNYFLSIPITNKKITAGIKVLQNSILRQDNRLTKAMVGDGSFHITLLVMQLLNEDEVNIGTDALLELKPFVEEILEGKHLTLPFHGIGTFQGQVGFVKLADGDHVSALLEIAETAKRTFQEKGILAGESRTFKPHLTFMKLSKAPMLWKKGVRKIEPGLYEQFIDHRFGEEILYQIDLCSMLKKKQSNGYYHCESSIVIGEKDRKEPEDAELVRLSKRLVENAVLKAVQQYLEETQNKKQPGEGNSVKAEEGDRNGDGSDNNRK
Text: (§1) ELISA is a method wherein an antigen is detected with a specific antibody. Detection proceeds via an enzyme linked covalently with one of the binding partners, which enzyme catalyzes chromogen conversion.
(§2) Because one of the two binding partners is immobilized, removal of unbound antibodies or antigens is very easy. Detection proceeds via observing the intensity (I) of chemiluminescence using a photomultiplier in a special reading device (ELISA reader). The output of the measured values is in relative light units (RLU).
(§3) In the present case, the point was to investigate whether binding of one protein (PKA) to another (AKAP18delta-GST) would be inhibited by the presence of small organic molecules. A sandwich ELISA was therefore developed wherein the RIIalpha PKA subunit, to which AKAP proteins bind, was bound on 384-well microtiter plates (MTP).
(§4) The white color improves detection by reflection of the chemiluminescence being formed and simultaneously prevents illumination of neighboring wells. Free binding sites were blocked after binding (see below), and the second GST-AKAP18delta protein was added to […]. Subsequently, bound GST-AKAP18delta was quantified via antibodies and chemiluminescence. The principle of ELISA is illustrated in FIG. 4.
(§5) PBS (phosphate-buffered saline, pH 7.4) was used as buffer system to maintain a physiological pH value for the proteins used. The buffer was added with a mix of protease inhibitors and PMSF as non-specific protease inhibitor to delay protein degradation. In addition, DTT was employed to protect the proteins from oxidation.
(§6) The blocking solution additionally included 0.3% skim milk powder to saturate MTP non-specific binding sites with milk proteins included therein.
(§7) To adapt the binding curves to the measured values (see results), the one-site binding model was used as a basis, which model applies to binding of GST-AKAP18delta to RIIalpha. The corresponding formula is
(§8) The measured values for IC50 calculation were adapted to the one-site competition model. It was established that the bottom asymptote should be greater than 0.0 to rule out faulty adaptations with negative binding values. The formula used is
(§9) The FMP20000 substance library was used for screening, i.e., systematic, partially automated search for potential inhibitors of AKAP18delta-RIIalpha binding. […] The substances of the library had been selected according to specific criteria which also apply to previously known pharmacological active substances. Said criteria also include Lipinski's Rule (cf. discussion). To prepare an MTP for screening, each of 380 wells was filled with 20 μl of RIIalpha solution with a concentration of 0.75 ng/μl (in binding buffer), using an electronically controlled 24-channel pipette (Eppendorf). […] Following centrifugation of the MTPs (1 min at 2500×g), the MTPs were incubated at room temperature for at least 1 h. After removing the protein solution by tapping on a paper stack, non-specific binding sites were blocked with 100 μl of blocking solution/well for at least 1 h at room temperature.
(§10) After completion of the washing operation, solution residues possibly still present were tapped off on a paper stack.
(§11) In the next step, the MTPs were prepared for automated pipetting of the low-molecular weight substances. Each well was supplied with 10 μl of blocking solution or controls pipetted in accordance with the pipetting scheme (Table 1.2). […] The plates were briefly centrifuged.
(§12) Each of the control columns 1 and 24 received 0.5 μl of DMSO, so that the controls were added with the same amount of DMSO as the other samples.
(§13) Following centrifugation of the screening MTPs, AKAP18delta-GST (8 ng/μl in blocking solution) was added in accordance with the pipetting scheme (Table 2.2), centrifuged, and incubated for at least 30 min at room temperature.

[2] = system: vasopressin (AVP)-dependent redistribution of the aquaporin-2 (AQP2) water channel in renal principal cells (IMCD cells); experiment: AVP-induced redistribution of AQP2 in primarily cultured IMCD cells (immunofluorescence, laser scanning microscope); type: cell-based, rat; conditions: FIG. 18 and 21
Protocol: Initially, collecting duct cells from the inner medulla of rat kidneys (IMCD cells) can be stimulated with AVP in the presence or absence of the substances so as to stimulate AQP2 translocation. Thereafter, immunofluorescence staining can be performed, wherein the cells—following incubation—are fixed and made permeable. Using antibodies coupled to fluorescent dyes, the intracellular localization of AQP2 can subsequently be determined under a fluorescence microscope. In this way it is possible to investigate the influence of the substances on the presumably AKAP18delta-dependent translocation of AQP2.
Inhibition of the vasopressin (AVP)-dependent redistribution of the aquaporin-2 (AQP2) water channel in renal principal cells by the substances specified (see Table B; concentrations of inhibitors in μM). Primarily cultured principal cells from the inner medulla of rat kidneys (IMCD cells) represent a model for the AVP-induced translocation of AQP2. Said redistribution is the molecular basis of AVP-induced water reabsorption in the kidneys. AQP2 was detected by means of a specific antiserum and Cy3-labelled secondary antibodies in untreated cells (control) and in cells treated with AVP or substances, using a laser scanning microscope (Tamma et al., 2003; Henn et al., 2004).
Effect of the low-molecular weight substances 18882, 990 and 990 derivatives SM61 and SM65 on AVP-induced redistribution of AQP2 in IMCD cells (see FIG. 18). The structures and chemical properties of the substances are illustrated in Tables A, B and C (concentrations of inhibitors in μM). AQP2 was detected by means of a specific antiserum and Cy3-labelled secondary antibodies in untreated cells (control) and in cells treated with AVP or substances, using a laser scanning microscope (Tamma et al., 2003; Henn et al., 2004). […] In contrast, the substances 18882 and the 990 derivative SM65 have no influence on AVP-induced AQP2 redistribution at the concentrations used.

[3] = target: T1, AKAP18delta-RIIalpha interaction (GST-AKAP18delta binding to plate-bound PKA-RIIalpha) (UniProt P13861+Q6JP77); experiment: ELISA for quantitative detection of protein-protein binding between PKA-RIIalpha and GST-AKAP18delta (library screening, validation, IC50); conditions: increasing peptide concentrations, FIG. 11
T1 construct: made in house; host or cells: E. coli BL21(DE3), pGEX-4T3 vector (GST-AKAP18delta only)
T1 sequence (Q6JP77 whole entry): as above
T1 sequence (P13861 whole entry): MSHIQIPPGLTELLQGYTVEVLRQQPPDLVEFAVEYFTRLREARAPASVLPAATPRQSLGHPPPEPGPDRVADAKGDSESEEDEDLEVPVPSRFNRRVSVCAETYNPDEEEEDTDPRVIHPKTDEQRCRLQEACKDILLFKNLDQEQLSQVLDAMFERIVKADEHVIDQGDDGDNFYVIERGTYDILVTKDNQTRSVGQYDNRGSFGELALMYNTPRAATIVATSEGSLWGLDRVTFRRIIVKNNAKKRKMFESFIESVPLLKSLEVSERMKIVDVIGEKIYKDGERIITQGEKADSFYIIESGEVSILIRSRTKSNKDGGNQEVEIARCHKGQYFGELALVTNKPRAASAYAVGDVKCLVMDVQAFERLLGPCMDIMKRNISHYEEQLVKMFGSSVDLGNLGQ
Text: as §1, §2, §3, §4, §5, §6, §7, §8, §9, §10, §11, §12, §13

Row | SMILES | Ratio IC50 (comp./990) in Screening no. 2 [1] | Ratio IC50 (comp./990) in Screening no. 3 [1] | further results
1 | S=C(NCc1cccc2ccccc12)NC1CCCCC1 [SM59] | 343.88 | – | –
2 | c1ccc(C/N=C(\NCc2cccc3ccccc23)SCc2cccc3ccccc23)cc1 [JG28] | – | 0.39 | –
3 | S=C(NCCN1CCCCC1)Nc1cccc2ccccc12 [SM52] | 962.65 | – | –
4 | CCNC(=N)SCc1cccc2ccccc12 [SM54] | 6.43 | – | –
5 | N=C(NN)SCc1cccc2ccccc12 [SM55] | 2.45 | – | –
6 | c1ccc2c(CN/C(=N\C3CCCCC3)SCc3cccc4ccccc34)cccc2c1 [JG25] | – | 0.26 | –
7 | C/N=C(/NCc1ccccc1)SCc1ccc2ccccc2c1 [SM72] | 55.39 | – | –
8 | CC(C)(C)/N=C(\NCc1cccc2ccccc12)SCc1cccc2ccccc12 [JG27] | – | 1.03 | –
9 | C/N=C(\NCc1cccc2ccccc12)SCc1cccc2ccccc12 [JG23] | – | – | IC50 in Screening no. 3 ([1]; Table C, screening no. 3): bad
10 | S=C(NCCN1CCCCC1)NCc1cccc2ccccc12 [SM56] | 592.04 | – | –
11 | CC(C)/N=C(\NCc1cccc2ccccc12)SCc1cccc2ccccc12 [JG26] | – | 0.87 | –
12 | c1ccc2c(C/N=C(\NC3CCCCC3)SCc3cccc4ccccc34)cccc2c1 [SM63] | 0.55 | 1.13 | –
13 | N=C(N)NCc1cccc2ccccc12 [SM51] | 88.35 | – | –
14 | CNC(=S)NCc1cccc2ccccc12 [SM57] | 4.16 | – | –
15 | CCNC(=S)NCc1cccc2ccccc12 [SM58] | – | – | Ratio IC50 (comp./990) in Screening no. 2 ([1]; Table C, screening no. 2, relative to substance 990): 986.12
16 | C/N=C(/NC1=NCCS1)SCc1cccc2ccccc12 [SM65] | 0.14 | 0.39 | Effect on AVP-induced redistribution of AQP2 [2]: no influence
17 | CC(C)(C)/N=C(\NC1=NCCS1)SCc1cccc2ccccc12 [JG21] | – | 1.97 | –
18 | C/N=C(/NCc1ccccc1)SCc1cccc2ccccc12 [SM71] | 0.41 | 0.45 | –
19 | C/N=C(/NC)SCc1cccc2ccccc12 [SM25] | 1.55 | 0.68 | Ratio IC50 (comp./990) in Screening no. 1 [1]: 0.97
20 | COc1ccc(CSC(=N)N)cc1Br [Compound 2348] | – | – | Concentration dependence of the inhibitory effect in validation (dilution series) [1]: non-active
21 | CC(C)(C)/N=C(\NCc1ccccc1)SCc1cccc2ccccc12 [JG20] | – | 0.74 | –
22 | C/N=C(/NC(C)c1ccccc1)SCc1cccc2ccccc12 (centres unmarked) [SM69] | 1.76 | – | –
23 | N=C(NCc1ccccc1)SCc1cccc2ccccc12 [SM53] | 3.20 | 1.13 | –
24 | C/N=C(/NCCCc1ccccc1)SCc1ccc2ccccc2c1 [SM68] | 86.51 | – | –
25 | C/N=C(/NC(C)c1ccccc1)SCc1ccc2ccccc2c1 (centres unmarked) [SM70] | 79.84 | – | –
26 | C/N=C(/NC1=NCCS1)SCc1ccc2ccccc2c1 [SM66] | 30.29 | – | –
27 | CC(C)C[C@H](NC(=O)[C@H](CCCNC(=N)N)NC(=O)[C@@H](NC(=O)[C@H](CC(C)C)NC(=O)[C@H](CCC(=O)O)NC(=O)[C@H](C)NC(=O)[C@H](CC(=O)O)NC(=O)[C@H](CCC(=O)O)NC(=O)[C@@H]1CCCN1)C(C)C)C(=O)N[C@@H](CO)C(=O)N[C@@H](CCCCN)C(=O)N[C@@H](CCCNC(=N)N)C(=O)N[C@@H](CC(C)C)C(=O)N[C@H](C(=O)N[C@@H](CCC(=O)O)C(=O)N[C@@H](CC(N)=O)C(=O)N[C@@H](C)C(=O)N[C@H](C(=O)N[C@@H](CCC(=O)O)C(=O)N[C@@H](CCCCN)C(=O)N[C@@H](C)C(=O)N[C@H](C(=O)N[C@@H](CCC(N)=O)C(=O)N[C@@H](CCC(N)=O)C(=O)N[C@@H](Cc1ccc(O)cc1)C(N)=O)C(C)C)C(C)C)C(C)C [Compound L314E, reference compound] | – | – | Concentration dependence of the inhibitory effect in validation (dilution series) [1]: inhibition of binding in a concentration-dependent fashion; Inhibition of GST-AKAP18delta binding to RIIalpha by peptides [3]: stronger inhibition of binding; also recorded: competitive inhibition of binding
28 | C/N=C(/NCCCc1ccccc1)SCc1cccc2ccccc12 [SM67] | 0.51 | 1.10 | –
29 | CN/C(=N\c1cccc2cc3ccccc3cc12)SCc1cccc2ccccc12 [JG31] | – | 8.29 | –
30 | CN/C(=N\Cc1cccc2ccccc12)SCc1cccc2ccccc12 [SM61] | 0.16 | 0.32 | Effect on AVP-induced redistribution of AQP2 [2]: inhibits the AVP-induced redistribution of AQP2
